In patent US7199151B2 (priority 1996, dated 2007):

Assays:
Format in all cases: cell-based
CNSU251 = test system: CNSU251
Method: (§1) Conjugates 1 and 2 were sent to the United States National Cancer Institute (NCI) for screening in the NCI's anticancer screening program. The conjugates were provided in ethanol (approximately 40 mg analog/2 ml ethanol). […] Instructions were provided to store at 4° C. and to open the vials only when ready for immediate experimental use. Instructions also were provided to use the ethanol solutions containing the conjugates directly or to dissolve the analogs further in DMSO (dimethylsulfoxide) at appropriate concentrations, with vortexing if necessary for adequate dispersal.
(§2) The activities of conjugates 1 and 2 were tested against 57 cancer cell lines. […] To understand the data, reference is made to the guides provided by the NCI, excerpted as follows:
(§3) The Calculated Measurement of Effect: Percentage Growth (PG)
(§4) The measured effect of the compound on a cell line is currently calculated according to one or the other of the following two expressions: If (Mean ODtest−Mean ODtzero)≧0, then PG=100×(Mean ODtest−Mean ODtzero)/(Mean ODctrl−Mean Odtzero) If (Mean ODtest−Mean ODtzero)<0, then PG=100×(Mean ODtest−Mean Odtzero)/Mean Odtzero Where: • Mean ODtzero=The average of optical density measurements of SRB-derived color just before exposure of cells to the test compound. • Mean ODtest=The average of optical density measurements of SRB-derived color after 48 hours exposure of cells to the test compound. • Mean ODctrl=The average of optical density measurements of SRB-derived color after 48 hours with no exposure of cells to the test compound. • Experimental data was collected against each cell line . . . Each concentration is expressed as the log10 (molar or μg/ml) . . . The response parameters GI50, TGI, and LC50 are interpolated values representing the concentrations at which the PG is +50, 0, and −50, respectively. Sometimes these response parameters cannot be obtained by interpolation. If, for instance, all of the PGs in a given row exceed +50, then none of the three parameters can be obtained by interpolation. In such a case, the value given for each response parameter is the highest concentration tested . . . This practice is extended similarly to the other possible situations where a response parameter cannot be obtained by interpolation.
(§5) Dose-Response Curves: • The dose-response curve page of the data package is created by plotting the PGs against the log10 of the corresponding concentration for every cell line. The cell line curves are grouped by subpanel. Horizontal lines are provided at the PG values of +50, 0, and −50. The concentrations corresponding to points where the curves cross these lines are the GI50, TGI and LC50, respectively.

57 cancer cell lines = conditions: average over all cell lines; −10 used where Taxol was active at −10.0 (27 instances)
Method: as §1, §2, §3, §4, §5

[1] = test system: MDA-N and MDA-MB-435 breast cancer cell lines; conditions: at all concentrations tested
Method: as §1, §2, §3, §4, §5

[2] = test system: non-small cell lung cancer lines H522 and H460
Method: as §1, §2, §3, §4, §5

[3] = test system: leukemia cancer cell lines; conditions: six leukemia lines for the conjugates, four for Taxol; FIGS. 1, 10 and 19
Method: as §1, §2, §3, §4, §5

CNS SF-539 = experiment: cells; conditions: 48 hours exposure, SRB
Method: as §1, §2, §3
as §4, with “In such a case, the value given for each response parameter is the highest concentration tested . . . This practice is extended similarly to the other possible situations where a response parameter cannot be obtained by interpolation.” left out

CNSSF 268 = experiment: cells; conditions: concentration at which PG is +50, 48 hours exposure, SRB
Method: as §1, §2, §3
as §4, with “In such a case, the value given for each response parameter is the highest concentration tested . . . This practice is extended similarly to the other possible situations where a response parameter cannot be obtained by interpolation.” left out

average GI50 across all cell lines tested (57 cancer cell lines): −9.19 log10 (molar or μg/ml)
Structure (SMILES): CC(=O)O[C@H]1C(=O)[C@@]2(C)[C@H]([C@H](OC(=O)c3ccccc3)[C@]3(O)C[C@H](OC(=O)[C@H](O)[C@@H](NC(=O)c4ccccc4)c4ccccc4)C(C)=C1C3(C)C)[C@]1(OC(C)=O)CO[C@@H]1C[C@@H]2O [Taxol, paclitaxel]
effectiveness at TGI against CNSU251 relative to other CNS cell lines (CNSU251): least effective | relative activity toward MDA-N versus MDA-MB-435 [1]: equivalent in activity | difference in effectiveness at TGI, H522 versus H460 [2]: about 3 logs | relative effectiveness at TGI, H522 versus H460 [2]: more effective against non-small cell lung cancer line H522 than against H460 | effectiveness against leukemia cancer cell lines [3]: somewhat effective | GI50 (CNS SF-539; CNSSF-539, concentration at which PG is +50, CNS SF 539): 30.2 nM | TGI (CNS SF-539; concentration at which PG is 0, CNS SF-539): −6.95 log10 (molar or μg/ml) | GI50 (CNSSF 268): < 0.1 nM
